Experimental data taken from ChEMBL document CHEMBL1140409, “Discovery of potent, nonsystemic apical sodium-codependent bile acid transporter inhibitors (Part 2)” (J Med Chem, 2005).
pIC50: −log10 of the molar value.

Target: T1, Ileal sodium/bile acid cotransporter (Homo sapiens, UniProt Q12908)
T1 sequence (Q12908 whole entry): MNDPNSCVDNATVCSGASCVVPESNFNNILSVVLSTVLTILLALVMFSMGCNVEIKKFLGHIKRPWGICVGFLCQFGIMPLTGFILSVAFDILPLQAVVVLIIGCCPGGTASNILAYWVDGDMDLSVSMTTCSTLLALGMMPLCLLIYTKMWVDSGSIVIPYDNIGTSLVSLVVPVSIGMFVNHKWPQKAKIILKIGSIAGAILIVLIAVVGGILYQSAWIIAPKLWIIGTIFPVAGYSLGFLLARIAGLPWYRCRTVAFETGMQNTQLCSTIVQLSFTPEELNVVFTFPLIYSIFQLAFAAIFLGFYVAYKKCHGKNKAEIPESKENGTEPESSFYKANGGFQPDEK
Assay: In vitro inhibition of ASBT mediated uptake of [14C]taurocholate (5 uM) in baby hamster cells expressing human IBAT
Assay type: cell-based

Row | Structure (SMILES) | pIC50
1 | CCCCC1(CCCC)CS(=O)(=O)c2ccc(N(C)C)cc2[C@@H](c2cccc(Nc3ccncc3)c2)[C@H]1O | 7.28
2 | CCCCC1(CCCC)CS(=O)(=O)c2ccc(N(C)C)cc2[C@@H](c2ccc(OCCOCCOCC[N+](C)(C)C)cc2)[C@H]1O | 8.40
3 | CCCCC1(CCCC)CS(=O)(=O)c2ccc(N(C)C)cc2[C@@H](c2ccc(OCCCCCN(CC)CC)cc2)[C@H]1O | 7.80
4 | CCCCC1(CCCC)CS(=O)(=O)c2ccc(N(C)C)cc2[C@@H](c2ccc(OCc3cc[n+](CC)cc3)cc2)[C@H]1O | 8.22
5 | CCCCC1(CCCC)CS(=O)(=O)c2ccc(N(C)C)cc2[C@@H](c2cccc(C[N+](C)(C)C)c2)[C@H]1O | 7.17
6 | CCCCC1(CCCC)CS(=O)(=O)c2ccc(N(C)C)cc2[C@@H](c2ccc(OCCOCCOCCN(CC)CC)cc2)[C@H]1O | 7.52
7 | CCCCC1(CCCC)CS(=O)(=O)c2ccc(N(C)C)cc2[C@@H](c2ccc(OCCCCC[N+]34CCN(CC3)CC4)cc2)[C@H]1O | 9.30
8 | CCCCC1(CCCC)CS(=O)(=O)c2ccc(N(C)C)cc2[C@@H](c2cccc(NCC(=O)NCC(=O)O)c2)[C@H]1O | 9.52
9 | CCCCC1(CCCC)CS(=O)(=O)c2ccc(N(C)C)cc2[C@@H](c2ccc(OCCOCCOCCN(CCO)CCO)cc2)[C@H]1O | 8.05
10 | CCCCC1(CCCC)CS(=O)(=O)c2ccc(N(C)C)cc2[C@@H](c2ccc(OCCN(C)C)cc2)[C@H]1O | 6.47
11 | CCCCC1(CCCC)CS(=O)(=O)c2ccc(N(C)C)cc2[C@@H](c2cccc(Nc3cc[n+](C)cc3)c2)[C@H]1O | 8.70
12 | CCCCC1(CCCC)CS(=O)(=O)c2ccc(N(C)C)cc2[C@@H](c2cccc(OCCN(CC)CC)c2)[C@H]1O | 7.35
13 | CCCCC1(CCCC)CS(=O)(=O)c2ccc(N(C)C)cc2[C@@H](c2ccc(OCCOCCOCC[N+]34CCN(CC3)CC4)cc2)[C@H]1O | 8.40
14 | CCCCC1(CCCC)CS(=O)(=O)c2ccc(N(C)C)cc2[C@@H](c2ccc(OCc3ccncc3)cc2)[C@H]1O | 7.55
15 | CCCCC1(CCCC)CS(=O)(=O)c2ccc(N(C)C)cc2[C@@H](c2ccc(OCCOCC[N+]34CCN(CC3)CC4)cc2)[C@H]1O | 8.07
16 | CCCCC1(CCCC)CS(=O)(=O)c2ccc(N(C)C)cc2[C@@H](c2ccc(OCC[N+](C)(C)C)cc2)[C@H]1O | 6.59
17 | CCCCC1(CCCC)CS(=O)(=O)c2ccc(N(C)C)cc2[C@@H](c2ccc(OCCCCC[N+](CC)(CC)CC)cc2)[C@H]1O | 8.70
18 | CCCCC1(CCCC)CS(=O)(=O)c2ccc(N(C)C)cc2[C@@H](c2ccc(OCCOCC[N+](CC)(CC)CC)cc2)[C@H]1O | 8.24
19 | CCCCC1(CCCC)CS(=O)(=O)c2ccc(N(C)C)cc2[C@@H](c2cccc(OCCCCC[N+](CC)(CC)CC)c2)[C@H]1O | 8.70
20 | CCCCC1(CCCC)CS(=O)(=O)c2ccc(N(C)C)cc2[C@@H](c2cccc(OCC[N+](CC)(CC)CC)c2)[C@H]1O | 8.15
21 | CCCCC1(CCCC)CS(=O)(=O)c2ccc(N(C)C)cc2[C@@H](c2cccc(NC(=O)CCCC[N+](CC)(CC)CC)c2)[C@H]1O | 9.12
22 | CCCCC1(CCCC)CS(=O)(=O)c2ccc(N(C)C)cc2[C@@H](c2ccc(OCCOCCOCCN3CCCN(C)CCN(C)CCCN(C)CC3)c(F)c2)[C@H]1O | 8.52
23 | CCCCC1(CCCC)CS(=O)(=O)c2ccc(N(C)C)cc2[C@@H](c2ccc(OC)cc2)[C@H]1O (racemic) | 8.17
24 | CCCCC1(CCCC)CS(=O)(=O)c2ccc(N(C)C)cc2[C@@H](c2ccc(F)c(F)c2)[C@H]1O (racemic) | 7.66
25 | CCCCC1(CCCC)CS(=O)(=O)c2ccc(N(C)C)cc2[C@@H](c2ccc(C[N+](C)(C)C)cc2)[C@H]1O (racemic) | 5.06
26 | CCCCC1(CCCC)CS(=O)(=O)c2ccc(N(C)C)cc2[C@@H](c2ccc(O)cc2)[C@H]1O (racemic) | 8.66

Row | Structure (SMILES) | pIC50
27 | CCCCC1(CCCC)CS(=O)(=O)c2ccc(N(C)C)cc2[C@@H](c2ccc(C(C)(C)C)cc2)[C@H]1O (racemic) | 6.00
28 | CCCCC1(CCCC)CS(=O)(=O)c2ccc(N(C)C)cc2[C@@H](c2ccccn2)[C@H]1O (racemic) | 8.30
29 | CCCCC1(CCCC)CS(=O)(=O)c2ccc(N(C)C)cc2[C@@H](c2ccc(SC)cc2)[C@H]1O (racemic) | 7.38
30 | CCCCC1(CCCC)CS(=O)(=O)c2ccc(N(C)C)cc2[C@@H](c2cccc(C(=O)OC)c2)[C@H]1O (racemic) | 8.15
31 | CCCCC1(CCCC)CS(=O)(=O)c2ccc(N(C)C)cc2[C@@H](c2ccc(OC)c(F)c2)[C@H]1O (racemic) | 8.44
32 | CCCCC1(CCCC)CS(=O)(=O)c2ccc(N(C)C)cc2[C@@H](c2ccsc2)[C@H]1O (racemic) | 8.30
33 | CCCCC1(CCCC)CS(=O)(=O)c2ccc(N(C)C)cc2[C@@H](c2ccc(CO)cc2)[C@H]1O (racemic) | 7.96
34 | CCCCC1(CCCC)CS(=O)(=O)c2ccc(N(C)C)cc2[C@@H](c2cccc(OC)c2)[C@H]1O (racemic) | 7.96
35 | CCCCC1(CCCC)CS(=O)(=O)c2ccc(N(C)C)cc2[C@@H](c2cccc(CO)c2)[C@H]1O (racemic) | 8.35
36 | CCCCC1(CCCC)CS(=O)(=O)c2ccc(N(C)C)cc2[C@@H](c2cccc(N)c2)[C@H]1O (racemic) | 8.70
37 | CCCCC1(CCCC)CS(=O)(=O)c2ccc(N(C)C)cc2[C@@H](c2ccc(C(=O)OC)cc2)[C@H]1O (racemic) | 7.39
38 | CCCCC1(CCCC)CS(=O)(=O)c2ccc(N(C)C)cc2[C@@H](c2cccc3ccccc23)[C@H]1O (racemic) | 6.21
39 | CCCCC1(CCCC)CS(=O)(=O)c2ccc(N(C)C)cc2[C@@H](c2cccs2)[C@H]1O (racemic) | 7.52
40 | CCCCC1(CCCC)CS(=O)(=O)c2ccc(N(C)C)cc2[C@@H](c2ccc3cc(OC)ccc3c2)[C@H]1O (racemic) | 7.12
41 | CCCCC1(CCCC)CS(=O)(=O)c2ccc(N(C)C)cc2[C@@H](c2cccc(CN(C)C)c2)[C@H]1O (racemic) | 7.33
42 | CCCCC1(CCCC)CS(=O)(=O)c2ccc(N(C)C)cc2[C@@H](c2cccc(O)c2)[C@H]1O (racemic) | 8.14
43 | CCCCC1(CCCC)CS(=O)(=O)c2ccc(N(C)C)cc2[C@@H](c2ccc(OC)c(OC)c2)[C@H]1O (racemic) | 7.70
44 | CCCCC1(CCCC)CS(=O)(=O)c2ccc(N(C)C)cc2[C@@H](c2ccc(C[n+]3ccccc3)cc2)[C@H]1O (racemic) | 6.07
45 | CCCCC1(CCCC)CS(=O)(=O)c2ccc(N(C)C)cc2[C@@H](c2ccc(C(=O)O)cc2)[C@H]1O (racemic) | 6.49
46 | CCCCC1(CCCC)CS(=O)(=O)c2ccc(N(C)C)cc2[C@@H](c2cccnc2)[C@H]1O (racemic) | 8.12
47 | CCCCC1(CCCC)CS(=O)(=O)c2ccc(N(C)C)cc2[C@@H](c2ccc(CN(CC)CC)cc2)[C@H]1O (racemic) | 6.03
48 | CCCCC1(CCCC)CS(=O)(=O)c2ccc(N(C)C)cc2[C@@H](c2cccc(CS(=O)(=O)O)c2)[C@H]1O (racemic) | 8.43
49 | CCCCC1(CCCC)CS(=O)(=O)c2ccc(N(C)C)cc2[C@@H](c2cccc(C[n+]3ccccc3)c2)[C@H]1O (racemic) | 8.12
50 | CCCCC1(CCCC)CS(=O)(=O)c2ccc(N(C)C)cc2[C@@H](c2ccc3cc(O)ccc3c2)[C@H]1O (racemic) | 7.77
51 | CCCCC1(CCCC)CS(=O)(=O)c2ccc(N(C)C)cc2[C@@H](c2ccc(O)c(O)c2)[C@H]1O (racemic) | 8.02
52 | CCCCC1(CCCC)CS(=O)(=O)c2ccc(N(C)C)cc2[C@@H](c2ccc(C[N+](CC)(CC)CC)cc2)[C@H]1O (racemic) | 5.26
